Laboratory results published in the supplement of paper PMC10307832.

What was measured:
Experiment in all cases: relative viability (nuclei count vs DMSO), 5 days (fraction); higher = more cells survive
NCI-H2170 = tested on: NCI-H2170
Method in brief: (§1)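 Lung cancer cell lines were seeded in 1536-well plates and dosed by pin tool the next day, with either a single drug or a fixed anchor-drug dose combined with five library-drug doses (not always all listed) spaced in √10 steps. Five days later, one step fixed the cells and stained their nuclei (final 0.05% Triton X-100, 1% formaldehyde, 1 ug/ml Hoechst), and nuclei were counted on 4× images. Relative viability is the nuclei count in treated wells divided by the count in vehicle wells, and each value is the median of duplicate plates.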

NCI-H1944 = tested on: NCI-H1944
Method in brief: as §1

HCC-78 = tested on: HCC-78
Method in brief: as §1

NCI-H2347 = tested on: NCI-H2347
Method in brief: as §1

SW 900 = tested on: SW 900
Method in brief: as §1

PC-14 = tested on: PC-14
Method in brief: as §1

HCC-366 = tested on: HCC-366
Method in brief: as §1

NCI-H650 = tested on: NCI-H650
Method in brief: as §1

NCI-H2228 = tested on: NCI-H2228
Method in brief: as §1

RERF-LC-KJ = tested on: RERF-LC-KJ
Method in brief: as §1

NCI-H1650 = tested on: NCI-H1650
Method in brief: as §1

NCI-H1915 = tested on: NCI-H1915
Method in brief: as §1

BEN = tested on: BEN
Method in brief: as §1

EMC-BAC-2 = tested on: EMC-BAC-2
Method in brief: as §1

NCI-H2085 = tested on: NCI-H2085
Method in brief: as §1

NCI-H2087 = tested on: NCI-H2087
Method in brief: as §1

NCI-H1666 = tested on: NCI-H1666
Method in brief: as §1

LC-2-ad = tested on: LC-2-ad
Method in brief: as §1

LXF-289 = tested on: LXF-289
Method in brief: as §1

NCI-H1563 = tested on: NCI-H1563
Method in brief: as §1

NCI-H1993 = tested on: NCI-H1993
Method in brief: as §1

NCI-H358 = tested on: NCI-H358
Method in brief: as §1

`Nc1cccc2c1CN(C1CCC(=O)NC1=O)C2=O` (stereo not drawn) [Lenalidomide] + Nc1nc2[nH]cc(CCc3ccc(C(=O)N[C@@H](CCC(=O)O)C(=O)O)cc3)c2c(=O)[nH]1 [Pemetrexed] (partner 0.2 µM) showed a relative viability (NCI-H2170; first compound 0.253 µM) of 0.279, a relative viability (NCI-H2170; first compound 0.8 µM) of 0.282 and a relative viability (NCI-H2170; first compound 2.53 µM) of 0.259. For the same compound, the relative viability (NCI-H2170; first compound 8 µM) was 0.27, the relative viability (NCI-H1944; first compound 0.253 µM) was 0.642 and the relative viability (NCI-H1944; first compound 2.53 µM) was 0.691. It also gave a relative viability (NCI-H1944; first compound 8 µM) of 0.553, a relative viability (HCC-78; first compound 0.253 µM) of 0.878 and a relative viability (HCC-78; first compound 0.8 µM) of 0.936. The relative viability (HCC-78; first compound 2.53 µM) was 0.886, the relative viability (HCC-78; first compound 8 µM) was 0.937 and the relative viability (NCI-H2347; first compound 0.253 µM) was 0.405. For the same compound, the relative viability (NCI-H2347; first compound 0.8 µM) was 0.435, the relative viability (NCI-H2347; first compound 2.53 µM) was 0.415 and the relative viability (NCI-H2347; first compound 8 µM) was 0.431. For the same compound, the relative viability (SW 900; first compound 2.53 µM) was 0.509, the relative viability (SW 900; first compound 8 µM) was 0.477 and the relative viability (PC-14; first compound 0.253 µM) was 0.126. For the same compound, the relative viability (PC-14; first compound 0.8 µM) was 0.151, the relative viability (PC-14; first compound 2.53 µM) was 0.139 and the relative viability (PC-14; first compound 8 µM) was 0.16. It also gave a relative viability (HCC-366; first compound 0.253 µM) of 0.161, a relative viability (HCC-366; first compound 0.8 µM) of 0.123 and a relative viability (HCC-366; first compound 2.53 µM) of 0.206. For the same compound, the relative viability (HCC-366; first compound 8 µM) was 0.264, the relative viability (NCI-H650; first compound 0.253 µM) was 0.902 and the relative viability (NCI-H650; first compound 0.8 µM) was 0.914. For the same compound, the relative viability (NCI-H650; first compound 2.53 µM) was 1.07, the relative viability (NCI-H650; first compound 8 µM) was 0.841 and the relative viability (NCI-H2228; first compound 0.253 µM) was 0.345. For the same compound, the relative viability (NCI-H2228; first compound 0.8 µM) was 0.345, the relative viability (NCI-H2228; first compound 2.53 µM) was 0.358 and the relative viability (NCI-H2228; first compound 8 µM) was 0.358. For the same compound, the relative viability (RERF-LC-KJ; first compound 0.253 µM) was 0.542, the relative viability (RERF-LC-KJ; first compound 0.8 µM) was 0.412 and the relative viability (RERF-LC-KJ; first compound 2.53 µM) was 0.503. The relative viability (RERF-LC-KJ; first compound 8 µM) was 0.503, the relative viability (NCI-H1650; first compound 0.253 µM) was 0.357 and the relative viability (NCI-H1650; first compound 0.8 µM) was 0.357. The relative viability (NCI-H1650; first compound 2.53 µM) was 0.366, the relative viability (NCI-H1650; first compound 8 µM) was 0.53 and the relative viability (NCI-H1915; first compound 0.253 µM) was 0.492. It also gave a relative viability (NCI-H1915; first compound 0.8 µM) of 0.515, a relative viability (NCI-H1915; first compound 2.53 µM) of 0.518 and a relative viability (NCI-H1915; first compound 8 µM) of 0.476. For the same compound, the relative viability (BEN; first compound 0.253 µM) was 0.787, the relative viability (BEN; first compound 0.8 µM) was 0.608 and the relative viability (BEN; first compound 2.53 µM) was 0.737. For the same compound, the relative viability (BEN; first compound 8 µM) was 0.673, the relative viability (EMC-BAC-2; first compound 0.253 µM) was 0.437 and the relative viability (EMC-BAC-2; first compound 0.8 µM) was 0.392. It also gave a relative viability (EMC-BAC-2; first compound 2.53 µM) of 0.451, a relative viability (EMC-BAC-2; first compound 8 µM) of 0.463 and a relative viability (NCI-H2085; first compound 0.253 µM) of 0.884. It also gave a relative viability (NCI-H2085; first compound 0.8 µM) of 0.96, a relative viability (NCI-H2085; first compound 2.53 µM) of 0.924 and a relative viability (NCI-H2085; first compound 8 µM) of 0.873. It also gave a relative viability (NCI-H2087; first compound 0.253 µM) of 0.65, a relative viability (NCI-H2087; first compound 2.53 µM) of 0.642 and a relative viability (NCI-H2087; first compound 8 µM) of 0.671. For the same compound, the relative viability (NCI-H1666; first compound 0.253 µM) was 0.801, the relative viability (NCI-H1666; first compound 0.8 µM) was 0.878 and the relative viability (NCI-H1666; first compound 2.53 µM) was 0.873. It also gave a relative viability (NCI-H1666; first compound 8 µM) of 0.826, a relative viability (LC-2-ad; first compound 0.253 µM) of 0.269 and a relative viability (LC-2-ad; first compound 0.8 µM) of 0.258. The relative viability (LC-2-ad; first compound 2.53 µM) was 0.262, the relative viability (LC-2-ad; first compound 8 µM) was 0.269 and the relative viability (LXF-289; first compound 0.253 µM) was 0.904. The relative viability (LXF-289; first compound 0.8 µM) was 1.13, the relative viability (LXF-289; first compound 2.53 µM) was 0.939 and the relative viability (LXF-289; first compound 8 µM) was 1.06. The relative viability (NCI-H1563; first compound 0.253 µM) was 1, the relative viability (NCI-H1563; first compound 0.8 µM) was 0.361 and the relative viability (NCI-H1563; first compound 2.53 µM) was 0.952. For the same compound, the relative viability (NCI-H1563; first compound 8 µM) was 0.637, the relative viability (NCI-H1993; first compound 0.253 µM) was 0.554 and the relative viability (NCI-H1993; first compound 0.8 µM) was 0.561. It also gave a relative viability (NCI-H1993; first compound 2.53 µM) of 0.63, a relative viability (NCI-H1993; first compound 8 µM) of 0.452 and a relative viability (NCI-H358; first compound 0.8 µM) of 0.197. It also gave a relative viability (NCI-H358; first compound 2.53 µM) of 0.182 and a relative viability (NCI-H358; first compound 8 µM) of 0.179.
